According to patent US20170196893A1, “TREATMENT OF INFLAMMATORY DEMYELINATING DISEASE WITH AGONISTS OF FARNESOID X RECEPTOR” (The Board of Trustees of the Leland Stanford Junior …, priority 2016, published 2017):

Key:
Format in all cases: in vivo, mouse
[1] = test system: splenocytes (CD4+ T cells, CD8+ T cells, CD19+ B cells); test: FACS analysis of splenocytes harvested from treated MOG35-55-immunized mice; settings: eleven days oral dosing; for BTLA expression on CD4+ T cells: vehicle 2.87%; for PD1 expression on CD4+ T cells: vehicle 3.5%; for PD-L1 expression on CD4+ T cells: vehicle 8.32%; for BTLA expression on CD19+ B cells: vehicle 12.21%; for BTLA expression on CD8+ T cells: vehicle (WT) 0.78%; for PD1 expression on CD8+ T cells: vehicle (WT) 1.12%; for PD-L1 expression on CD8+ T cells: vehicle (WT) 5.63%; for CD3+CD8+ T cells: vehicle (WT) 6.75%; for CD3+CD4+ T cells: vehicle (WT) 8.34%; for PD1 expression on CD19+ B cells: vehicle (WT) 11.58%; for PD-L1 expression on CD19+ B cells: vehicle (WT) 12.21%; for CD19+B220+ B cells: vehicle (WT) 42.82%; for VLA-4 (CD29+CD49d+) expression on T cells: vehicle (WT) 44.12%; for VLA-4 (CD29+CD49d+) expression on B cells: vehicle (WT) 56.35%
Source text: Flow cytometry Cells were stained according to standard protocols, run on a FACScan flow cytometer (BD Biosciences), and analysed with CellQuest software (BD Immunocytometry Systems). The antibody conjugates used were PerCPCy5.5 anti-CD3, FITC anti-CD4, PE anti-CD8, PE anti-B220, PerCp-Cy5.5 anti-B220, FITC anti-CD19, PE anti-PD1, PE anti-PD-L1, PE anti-BTLA, PE anti-CD29, and FITC anti-CD49d (BD Pharmingen & eBioscience)

[2] = test system: MOG35-55-specific lymphocytes; test: 72 h proliferation assay (3H-thymidine) of splenocytes/lymph node cells harvested from treated mice, restimulated with MOG35-55
Protocol: (§1) Proliferation and cytokine assays. Splenocytes and lymph nodes were harvested and stimulated with increasing concentrations of MOG35-55 for a total of 72 hours. For assessment of proliferation, 1 μCi of ^3H-thymidine was added to each well for the final 18-24 hours of culture, and incorporation of radioactivity was measured by using a Betaplate scintillation counter. Cytokine assays were performed on culture supernatants after 72 hours of culture by using the IL-2, IL-6, IFNgamma, and TNF BD OptEIA™ Mouse ELISA kits (BD Biosciences) or Mouse IL-17 DuoSet ELISA Development kit (R&D Systems).

[3] = Serum lipid panel analysis of treated MOG35-55-immunized mice fasted overnight; settings: eleven days of oral dosing after EAE immunization, overnight fast (FIG. 4A)
Source text: Serum Lipid Panel Analysis. Serum from mice fasted overnight was submitted to the Diagnostic Laboratory at Stanford University, Department of Comparative Medicine for a full lipid panel analysis.

[4] = test system: experimental autoimmune encephalomyelitis (EAE); test: Adoptive transfer EAE with cells of treated donor mice; settings: donor mice treated eleven days, cells restimulated 72 h with MOG35-55 and rIL-12; vs vehicle treated donors (FIG. 4D)
Protocol: Mice and EAE Induction. C57BL/6J and FXRKO (B6.129x1(FVB)-Nr1h4tm1Gonz/J, #0007214) female mice were purchased from the Jackson Laboratory. Animal experiments were approved by, and performed in compliance with, the National Institute of Health guidelines of the Institutional Animal Care and Use Committee at Stanford University. For induction of active and adoptive transfer of EAE, 8- to 12-week-old female mice were immunized subcutaneously with 100 μg of MOG35-55 emulsified in complete Freund's adjuvant (CFA), consisting of incomplete Freund's Adjuvant and 0.4 mg of heat inactivated Mycobacterium tuberculosis, strain H37 RA (Difco Laboratories). On days 0 and 2, mice were also injected intravenously or intraperitoneally with 400 ng pertussis toxin in 0.2 ml 1×PBS. Adoptive transfer requires harvesting lymph nodes and spleens ten days after immunization. Combined lymphocytes and splenocytes are cultured in bulk, at 5×10^7 cells/ml for seventy-two hours in the presence of MOG35-55 (20 μg/ml) and rIL-12 (10 ng/ml, R&D systems). Cells are harvested and washed twice before transfer of 3×10^7 cells in 0.2 ml 1×PBS into naive 6-7 week old female mice, intraperitoneally. Clinical disease was monitored daily using the following scoring system: 0, no disease; 1, limp tail; 2, hind limb weakness; 3, hind limb paralysis; 4, hind limb and forelimb paralysis; 5, death.

[5] = test system: experimental autoimmune encephalomyelitis (EAE); test: Active EAE, clinical scores of mice with established EAE; settings: 5 mg/kg daily oral, 6-ECDCA vs CDCA vs vehicle (FIG. 3B)
splenocytes = test: Cytokine production (ELISA) by splenocytes harvested from treated mice, restimulated with MOG35-55; settings: daily oral treatment of established EAE (FIG. 3D)
Protocol: as §1

In the case of CC[C@H]1[C@@H](O)[C@@H]2[C@H](CC[C@]3(C)[C@@H]([C@H](C)CCC(=O)O)CC[C@@H]23)[C@@]2(C)CC[C@@H](O)C[C@@H]12 [6-ECDCA, 6α-Ethyl-chenodeoxycholic acid], the “BTLA expression on CD4+ T cells” value [1] is reported as 2.38%, the “PD1 expression on CD4+ T cells” value [1] is reported as 2.74% and the “PD-L1 expression on CD4+ T cells” value [1] is reported as 6.59%. For the same compound, the “BTLA expression on CD19+ B cells” value [1] was 6.23%, the “BTLA expression on CD8+ T cells” value [1] was 1.21% and the “PD1 expression on CD8+ T cells” value [1] was 1.82%. The “PD-L1 expression on CD8+ T cells” value [1] was 9.5%, the “CD3+CD8+ T cells” value [1] was 12.22% and the “CD3+CD4+ T cells” value [1] was 7.33%. For the same compound, the “PD1 expression on CD19+ B cells” value [1] was 12.3%, the “PD-L1 expression on CD19+ B cells” value [1] was 11.34% and the “CD19+B220+ B cells” value [1] was 30.69%. The “VLA-4 (CD29+CD49d+) expression on T cells” value [1] was 36.67% and the “VLA-4 (CD29+CD49d+) expression on B cells” value [1] was 51.98%.
For C[C@H](CCC(=O)O)[C@H]1CC[C@H]2[C@@H]3[C@H](O)C[C@@H]4C[C@H](O)CC[C@]4(C)[C@H]3CC[C@]12C [CDCA, Chenodeoxycholic acid], the “T cell recall responses to MOG35-55” value ([2]; daily oral treatment of established EAE (FIG. 3C)) was “significantly suppressed”, the “Recall responses of MOG35-55-specific lymphocytes (proliferation)” value ([2]; eleven days of oral dosing, combined splenocytes and lymphocytes, vs vehicle (FIG. 4B)) was “greatly reduced” and the “Serum HDL levels” value [3] was “decreased”. For the same compound, the Serum cholesterol levels [3] was “decreased”, the “Serum low-density lipoprotein (LDL) levels” value [3] was “not significantly altered” and the Serum triglycerides [3] was “not significantly altered”. For the same compound, the “BTLA expression on CD4+ T cells” value [1] was 2.77%, the “PD1 expression on CD4+ T cells” value [1] was 2.64% and the “PD-L1 expression on CD4+ T cells” value [1] was 8.43%. For the same compound, the “BTLA expression on CD19+ B cells” value [1] was 6.76%, the “BTLA expression on CD8+ T cells” value [1] was 1.92% and the “PD1 expression on CD8+ T cells” value [1] was 1.63%. For the same compound, the “PD-L1 expression on CD8+ T cells” value [1] was 12.3%, the “CD3+CD8+ T cells” value [1] was 12.92% and the “CD3+CD4+ T cells” value [1] was 7.89%. The “PD1 expression on CD19+ B cells” value [1] was 9.58%, the “PD-L1 expression on CD19+ B cells” value [1] was 3.79% and the “CD19+B220+ B cells” value [1] was 36.07%. The “VLA-4 (CD29+CD49d+) expression on T cells” value [1] was 33.78%, the “VLA-4 (CD29+CD49d+) expression on B cells” value [1] was 49.16% and the “Clinical EAE scores of naive recipient mice” value [4] was “significantly less severe disease”. For the same compound, the “Clinical EAE score (average EAE disease grade)” value [5] was “clinical disease was ameliorated”, the IFN-gamma production (splenocytes) was “decreased” and the IL-6 production (splenocytes) was “decreased”. For the same compound, the IL-17 production (splenocytes) was “not significantly altered” and the TNF production (splenocytes) was “decreased”.
